Values of other authors in patent US20170165286A1, “COMPOSITIONS AND METHODS FOR TREATING DIABETES AND LIVER DISEASES” (Cempra Pharmaceuticals, Inc., priority 2014, published 2017).

Tests used:
[1] = reported; cited from earlier work
[2] = reportedly; cited from earlier work

SMILES | QT effect [1] | Liver toxicity [2]
CC[C@H]1OC(=O)[C@H](C)[C@@H](O[C@H]2C[C@@](C)(OC)[C@@H](O)[C@H](C)O2)[C@H](C)[C@@H](O[C@@H]2O[C@H](C)C[C@H](N(C)C)[C@H]2O)[C@](C)(O)C[C@@H](C)CN(C)[C@H](C)[C@@H](O)[C@]1(C)O [azithromycin] | QT positive | –
CC[C@H]1OC(=O)[C@H](C)[C@@H](O[C@H]2C[C@@](C)(OC)[C@@H](O)[C@H](C)O2)[C@H](C)[C@@H](O[C@@H]2O[C@H](C)C[C@H](N(C)C)[C@H]2O)[C@](C)(OC)C[C@@H](C)C(=O)[C@H](C)[C@@H](O)[C@]1(C)O [clarithromycin] | QT positive | toxic to the liver
CC[C@H]1OC(=O)[C@H](C)C(=O)[C@H](C)[C@@H](O[C@@H]2O[C@H](C)C[C@H](N(C)C)[C@H]2O)[C@](C)(OC)C[C@@H](C)C(=O)[C@H](C)[C@H]2N(CCCCn3cnc(-c4cccnc4)c3)C(=O)O[C@]12C [telithromycin] | QT positive | –
